These compounds were tested against G-protein coupled receptor 6 (Homo sapiens, UniProt P46095) (assay: Activity at GPR6 (unknown origin) expressed in CHOK1 cells assessed as inhibition of constitutive cAMP activity incubated for 45 mins by HTRF based cAMP detection assay). Details: not given.
Sequence of G-protein coupled receptor 6 (P46095 whole entry): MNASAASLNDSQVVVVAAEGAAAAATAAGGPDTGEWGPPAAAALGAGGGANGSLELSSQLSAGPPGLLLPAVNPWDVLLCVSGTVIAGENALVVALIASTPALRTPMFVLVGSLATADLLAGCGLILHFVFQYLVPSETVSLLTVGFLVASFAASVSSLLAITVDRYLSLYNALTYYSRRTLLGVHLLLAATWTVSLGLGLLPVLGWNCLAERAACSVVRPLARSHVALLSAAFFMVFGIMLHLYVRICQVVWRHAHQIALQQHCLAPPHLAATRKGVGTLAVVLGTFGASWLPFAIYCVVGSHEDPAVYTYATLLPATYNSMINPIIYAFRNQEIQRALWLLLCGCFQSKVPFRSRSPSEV
Type: functional, cell-based, CHO-K1
For CN(C)C(=O)c1cc2nc(NC3CC3)c(N3CCN(C(=O)c4cc(F)ccc4Cl)CC3)nc2cn1, the IC50 was 1570 nM. For O=C(c1cc(Cl)ccc1F)C1CCN(c2nc3cnccc3nc2NC2CC2)CC1, the IC50 was 35 nM. In the case of Fc1ccc(Cl)cc1C(F)(F)C1CCN(c2nc3cnccc3nc2NC2CC2)CC1, the IC50 is reported as 46 nM. In the case of Fc1ccc(C(F)(F)C2CCN(c3nc4cnccc4nc3NC3CC3)CC2)c(F)c1, the IC50 is reported as 16 nM. Compound Cc1c(Cl)cc(F)cc1S(=O)(=O)N1CCN(c2nc3cc(C#N)ccc3nc2NC2CC2)CC1 has an IC50 of 960 nM. In the case of Fc1ccc(CN2CCN(c3nc4cnncc4nc3NC3CC3)CC2)c(F)c1, the IC50 is reported as 260 nM. With N#Cc1ccc2nc(N3CCN(C(=O)c4ccc(Cl)cc4)CC3)c(NC3CC3)nc2c1 the IC50 was 340 nM. CSc1ccc(OC2CCN(c3nc4cnccc4nc3NC3CC3)CC2)cc1 was tested, and the IC50 was 146 nM. In the case of N#Cc1ccc2nc(NC3CC3)c(N3CCN(S(=O)(=O)c4cccc(Cl)c4)CC3)nc2c1, the IC50 is reported as 5620 nM. Fc1ccc(OC2CCN(c3nc4cc(Br)ccc4nc3NC3CC3)CC2)c(F)c1 was tested, and the IC50 was 1430 nM. For N#Cc1ccc2nc(NC3CC3)c(N3CCN(S(=O)(=O)c4ccc(OC(F)(F)F)cc4)CC3)nc2c1, the IC50 was 4290 nM. For O=S(=O)(c1ccccc1)N1CCN(c2nc3cc(F)ccc3nc2NC2CC2)CC1, the IC50 was 9440 nM. N#Cc1ccc2nc(Nc3ccon3)c(N3CCN(C(=O)c4ccc(Cl)cc4)CC3)nc2c1 showed an IC50 of 15400 nM. Cc1cc2nc(NC3CC3)c(N3CCC([C@@H](F)c4ccc(F)cc4F)CC3)nc2cn1 gave an IC50 of 6 nM. CC(=O)c1ccc(OC2CCN(c3nc4cnccc4nc3NC3CC3)CC2)cc1 was tested, and the IC50 was 1740 nM. With Cc1cc2nc(NC3CC3)c(N3CCC(S(=O)(=O)c4ccc(F)cc4)CC3)nc2cn1 the IC50 was 93 nM. Cc1nccc2nc(NC3CC3)c(N3CCC(Oc4ccc(F)cc4F)CC3)nc12 gave an IC50 of 18 nM. In the case of Cc1cc2nc(NC3CC3)c(N3CCC([C@H](F)c4cc(F)ccc4F)CC3)nc2cn1, the IC50 is reported as 11 nM. For N#Cc1ccc2nc(NC3CC3)c(N3CCC(Cc4ccc(F)cc4F)CC3)nc2c1, the IC50 was 64 nM. For Fc1ccc(F)c(CN2CCN(c3nc4cnccc4nc3NC3CC3)CC2)c1, the IC50 was 120 nM. With Fc1ccc(Cl)cc1CN1CCN(c2nc3cnccc3nc2NC2CC2)CC1 the IC50 was 29 nM. In the case of Fc1cc(Cl)ccc1OC1CCN(c2nc3cnncc3nc2NC2CC2)CC1, the IC50 is reported as 30 nM. Work on COc1ccc(CN2CCN(c3nc4c(C#N)nccc4nc3NC3CC3)CC2)c(F)c1 yielded an IC50 of 88 nM. In the case of CC(C)OCCNc1nc2ccccc2nc1N1CCN(Cc2cc(Cl)ccc2Cl)CC1, the IC50 is reported as 3330 nM. For CC(C)Nc1nc2cnncc2nc1N1CCC(Oc2ccc(OCF)cc2F)CC1, the IC50 was 8 nM. O=C(c1cccnc1Br)C1CCN(c2nc3cnccc3nc2NC2CC2)CC1 was tested, and the IC50 was 2740 nM. Fc1cc2nc(NC3CC3)c(N3CCN(Cc4cc(Cl)ccc4Cl)CC3)nc2cc1F showed an IC50 of 800 nM. Cc1cc(CN2CCN(c3nc4ccccc4nc3NC3CC3)CC2)no1 gave an IC50 of 105000 nM. For O=C(c1cc(F)ccc1Cl)C1CCN(c2nc3cnccc3nc2NC2CC2)CC1, the IC50 was 62 nM. In the case of Fc1cc(F)c(CN2CCN(c3nc4cnccc4nc3NC3CC3)CC2)cc1F, the IC50 is reported as 50 nM. In the case of COc1ccc(OC2CCN(c3nc4ccncc4nc3NC(C)C)CC2)c(F)c1, the IC50 is reported as 12 nM. Work on Fc1ccc([C@H](F)C2CCN(c3nc4cnncc4nc3NC3CC3)CC2)c(F)c1 yielded an IC50 of 22 nM. COCCNc1nc2ccncc2nc1N1CCC(Oc2ccc(F)cc2F)CC1 showed an IC50 of 670 nM. Compound Cc1nccc2nc(NC3CC3)c(N3CCC(Cn4ccc(F)cc4=O)CC3)nc12 has an IC50 of 380 nM. For COc1ccc(OC2CCN(c3nc4cnncc4nc3NC3CC3)CC2)c(F)c1, the IC50 was 20 nM. O=C(c1csc(Cl)c1)C1CCN(c2nc3cnccc3nc2NC2CC2)CC1 showed an IC50 of 4810 nM. For N#Cc1ccc2nc(NCCF)c(N3CCN(C(=O)c4ccc(Cl)cc4)CC3)nc2c1, the IC50 was 960 nM. For COc1cccc(OC2CCN(c3nc4cnncc4nc3NC(C)C)CC2)c1, the IC50 was 1000 nM. Compound COCCNc1nc2ccncc2nc1N1CCC(Cc2ccc(F)cc2F)CC1 has an IC50 of 30 nM. O=C(c1ccsc1)C1CCN(c2nc3cnccc3nc2NC2CC2)CC1 showed an IC50 of 2290 nM. Work on C[C@@H](CO)Nc1nc2ccccc2nc1N1CCN(Cc2cc(Cl)ccc2Cl)CC1 yielded an IC50 of 1570 nM. CC(C)Nc1nc2cnncc2nc1N1CCC(C(F)c2ccc(F)cc2F)CC1 (configuration not stated) was tested, and the IC50 was 6 nM. Fc1ccc([C@@H](F)C2CCN(c3nc4cnccc4nc3NC3CC3)CC2)c(F)c1 was tested, and the IC50 was 24 nM. With CSc1ccc(OC2CCN(c3nc4cnncc4nc3NC3CC3)CC2)c(F)c1 the IC50 was 14 nM. O=C(c1c(F)cccc1F)C1CCN(c2nc3cnccc3nc2NC2CC2)CC1 showed an IC50 of 2180 nM. For O=C(c1c(Cl)ccc(F)c1F)C1CCN(c2nc3cnccc3nc2NC2CC2)CC1, the IC50 was 3900 nM. For Fc1ccc(CC2CCN(c3nc4cnc(Cl)cc4nc3NC3CC3)CC2)c(F)c1, the IC50 was 31 nM. With CN(C)C(=O)c1cc2nc(NC3CC3)c(N3CCC([C@H](F)c4ccc(F)cc4F)CC3)nc2cn1 the IC50 was 10 nM. In the case of CN(C)C(=O)c1cc2nc(NCC(F)F)c(N3CCC(Oc4ccc(F)cc4F)CC3)nc2cn1, the IC50 is reported as 65 nM. Clc1ccc(Cl)c(CN2CCN(c3nc4ccccc4nc3NC3CCOCC3)CC2)c1 showed an IC50 of 4070 nM. Compound N#Cc1ccc2nc(N3CCC(C(F)c4ccc(F)cc4F)CC3)c(NC3CC3)nc2c1 (configuration not stated) has an IC50 of 29 nM. With COCCNc1nc2ccc(C#N)cc2nc1N1CCC(Cc2ccc(F)cc2F)CC1 the IC50 was 250 nM. N#Cc1nccc2nc(NC3CC3)c(N3CCN(Cc4ccc(F)cc4F)CC3)nc12 gave an IC50 of 66 nM. N#Cc1ccc2nc(NCCC(F)(F)F)c(N3CCC(Oc4ccc(F)cc4F)CC3)nc2c1 gave an IC50 of 160 nM. With Cc1nccc2nc(NC3CC3)c(N3CCC(C(F)(F)c4cc(F)ccc4F)CC3)nc12 the IC50 was 45 nM. Compound N#Cc1cccc(C(=O)C2CCN(c3nc4cnccc4nc3NC3CC3)CC2)c1 has an IC50 of 7210 nM. Fc1ccc(F)c(C(F)C2CCN(c3nc4cnccc4nc3NC3CC3)CC2)c1 (configuration not stated) gave an IC50 of 20 nM. Compound Cc1cccc(CN2CCN(c3nc4ccccc4nc3NC3CC3)CC2)c1C has an IC50 of 3640 nM. Work on O=C(c1ccccc1Cl)C1CCN(c2nc3cnccc3nc2NC2CC2)CC1 yielded an IC50 of 67 nM. Compound N#Cc1cc2nc(NC3CC3)c(N3CCC([C@@H](F)c4ccc(F)cc4F)CC3)nc2cn1 has an IC50 of 17 nM. CN(C)C(=O)c1cc2nc(NC3CC3)c(N3CCC(Oc4ccc(F)cc4F)CC3)nc2cn1 gave an IC50 of 5 nM. Work on CS(=O)(=O)c1ccc(C(=O)N2CCN(c3nc4ccccc4nc3NC3CC3)CC2)cc1 yielded an IC50 of 530 nM. Compound O=C(c1nccc2nc(NC3CC3)c(N3CCC([C@@H](F)c4ccc(F)cc4F)CC3)nc12)N1CCOCC1 has an IC50 of 7 nM. O=S(=O)(c1ccccc1)N1CCN(c2nc3ccccc3nc2Nc2cccnc2)CC1 showed an IC50 of 4630 nM. For Cc1ccc(S(=O)(=O)N2CCN(c3nc4cc(C#N)ccc4nc3NC3CC3)CC2)cc1, the IC50 was 4740 nM.

What follows are compounds tested on Rattus norvegicus (assay: Reversal of haloperidol-induced catalepsy in Sprague-Dawley rat at 10 mg/kg, sc after 30 mins relative to control). Details: 0.5 h.
Type: functional
N#Cc1ccc2nc(NC3CC3)c(N3CCC(Cc4ccc(F)cc4F)CC3)nc2c1 showed an inhibition in vivo at 10 mg/kg of 36.9%.

Each compound was assayed on Rattus norvegicus (assay: Reversal of haloperidol-induced catalepsy in Sprague-Dawley rat at 10 mg/kg, sc after 120 mins relative to control). Details: 2 h.
Type: functional
N#Cc1ccc2nc(NC3CC3)c(N3CCC(Cc4ccc(F)cc4F)CC3)nc2c1 was tested, and the inhibition in vivo at 10 mg/kg was 25.1%.
